Source: ChEMBL document CHEMBL3407448 (J Med Chem, 2015)

Experiments:
[1] = Volume of distribution at steady state in male Wistar rat at 2 mg/kg, iv; format: ADME, organism-based; parameters: dose 2 mg/kg, route intravenous; conditions: in vivo, read-out: Vdss
[2] = Tmax in male Wistar rat at 7 mg/kg, po; format: ADME, organism-based; parameters: dose 7 mg/kg, route oral; conditions: in vivo
[3] = Ratio of drug level in CSF to plasma in male Wistar rat; format: ADME
[4] = Ratio of drug level in brain to plasma in male Wistar rat; format: ADME; conditions: read-out: BPR
[5] = Cmax in male Wistar rat at 7 mg/kg, po; format: ADME, organism-based; parameters: dose 7 mg/kg, route oral; conditions: in vivo
[6] = AUC (infinity) in male Wistar rat at 7 mg/kg, po; format: ADME, organism-based; parameters: time infinity, dose 7 mg/kg, route oral; conditions: plasma
[7] = Oral bioavailability in male Wistar rat at 7 mg/kg; format: ADME, organism-based; conditions: in vivo
Rattus norvegicus = assay: (§1) Volume of distribution at steady state in male Wistar rat at 1 mg/kg, iv; format: ADME, organism-based; parameters: dose 1 mg/kg, route intravenous; conditions: in vivo
[8] = AUC (infinity) in male Wistar rat at 10 mg/kg, po; format: ADME, organism-based; parameters: time infinity, dose 10 mg/kg, route oral; conditions: plasma
[9] = Oral bioavailability in male Wistar rat at 10 mg/kg; format: ADME, organism-based; conditions: in vivo
[10] = Tmax in male Wistar rat at 10 mg/kg, po; format: ADME, organism-based; parameters: dose 10 mg/kg, route oral; conditions: in vivo
[11] = Cmax in male Wistar rat at 10 mg/kg, po; format: ADME, organism-based; parameters: dose 10 mg/kg, route oral; conditions: in vivo
[12] = Cmax in fed cynomolgus monkey at 0.3 mg/kg, po; format: ADME, organism-based, Macaca fascicularis; parameters: dose 0.3 mg/kg, route oral; conditions: in vivo
[13] = Oral bioavailability in fed cynomolgus monkey at 0.3 mg/kg; format: ADME, organism-based, Macaca fascicularis; conditions: in vivo
[14] = Oral bioavailability in fasted cynomolgus monkey at 0.3 mg/kg; format: ADME, organism-based, Macaca fascicularis; conditions: in vivo
[15] = Tmax in fed cynomolgus monkey at 03 mg/kg, po; format: ADME, organism-based, Macaca fascicularis; parameters: dose 3 mg/kg, route oral; conditions: in vivo, 3 mg/kg
[16] = Cmax in fasted cynomolgus monkey at 0.3 mg/kg, po; format: ADME, organism-based, Macaca fascicularis; parameters: dose 0.3 mg/kg, route oral; conditions: in vivo
Plasma [17] = assay: Plasma concentration in male Sprague-Dawley rat at 0.03 mg/ml, po; format: ADME
[18] = Tmax in fasted cynomolgus monkey at 03 mg/kg, po; format: ADME, organism-based, Macaca fascicularis; parameters: dose 3 mg/kg, route oral; conditions: in vivo, 3 mg/kg
[19] = AUC (infinity) in fed cynomolgus monkey at 0.3 mg/kg, po; format: ADME, organism-based, Macaca fascicularis; parameters: time infinity, dose 0.3 mg/kg, route oral; conditions: plasma
Plasma [20] = assay: Plasma concentration in male Sprague-Dawley rat at 0.3 mg/ml, po; format: ADME
[21] = AUC (infinity) in fasted cynomolgus monkey at 0.3 mg/kg, po; format: ADME, organism-based, Macaca fascicularis; parameters: time infinity, dose 0.3 mg/kg, route oral; conditions: plasma
[22] = as §1; format: ADME, organism-based; parameters: dose 1 mg/kg, route intravenous; conditions: male, Wistar, in vivo, read-out: Vdss
[23] = Volume of distribution at steady state cynomolgus monkey at 1 mg/kg, iv; format: ADME, organism-based, Macaca fascicularis; parameters: dose 1 mg/kg, route intravenous; conditions: in vivo, read-out: Vdss

Vd [1] | Tmax [2] | Kp [3] | Kp [4] | Cmax [5] | AUC(0-inf) [6] | bioavailability [7] | AUC(0-inf) [8] | bioavailability [9] | Tmax [10] | Cmax [11] | Structure (SMILES) | other results
0.8 L/kg | 1.1 h | 0.02 | 0.4 | 1660 ng/mL | 10500 ng·h/mL | 84% |  |  |  |  | Cc1cc(C#Cc2cn(-c3ccc(F)cc3)c(C)n2)ccn1 | 
 | 2.3 h |  |  | 158 ng/mL | 661 ng·h/mL | 18% |  |  |  |  | C(#Cc1ncn2c1COc1ccccc1-2)c1ccccc1 | Vdss (Rattus norvegicus): 2.9 L/kg
11 L/kg |  |  | 2.6 |  |  |  | 78900 ng·h/mL | 98% | 5.5 h | 619 ng/mL | Cc1nc(C#Cc2ccnc(Cl)c2)c(C)n1-c1ccc(OC(F)(F)F)cc1 | 
 |  | 0.06 | 2.9 |  |  |  | 25600 ng·h/mL | 91% | 6.2 h | 1580 ng/mL | Cc1nc(C#Cc2ccnc(Cl)c2)c(C)n1-c1ccc(F)cc1 [BASIMGLURANT] | Cmax [12]: 36.1 ng/mL; bioavailability [13]: 54%; bioavailability [14]: 100%; Tmax [15]: 2 h; Cmax [16]: 76.5 ng/mL; Cp (Plasma [17]): 5 ng/mL; Tmax [18]: 1 h; AUC(0-inf) [19]: 298 ng·h/mL; Cp (Plasma [20]): 37 ng/mL; AUC(0-inf) [21]: 852 ng·h/mL; Vd [22]: 4 L/kg; Vd [23]: 5.1 L/kg
